From patent publication US8940740B2, “Small molecule inhibitors of bacterial motility and a high throughput screening assay for their identification” (priority 2010, dated 2015)
In brackets after ≈: the same amount, converted by molar mass.

Key:
[1] = tested on: Vibrio cholerae strain C7258; assay: Bacterial motility in 384-well soft agar HTS assay, off-site OD615 reading; type: cell-based; conditions: for IC50: Vibrio cholerae, C7258, inhibition of bacterial motility, optical density read off-site from inoculation point, read-out: Motility OD IC50; for Control average OD615 in pilot screen: pilot screen control wells
[2] = tested on: Vibrio cholerae strain C7258; assay: Growth with PMF blocked by CCCP (Na+ bioenergetics); type: cell-based; conditions: LB pH 8.6, 0.3 M NaCl, CCCP 5 μM, Q24DA 10 μg/mL
[3] = tested on: Vibrio cholerae strain C7258; assay: Bacterial viability/toxicity readout with alamarBlue in 384-well soft agar HTS assay; type: cell-based; conditions: for IC50: Vibrio cholerae, C7258, toxicity of compound to bacteria as measured by alamarBlue, read-out: Inhibition IC50
[4] = tested on: cholera toxin and toxin-co-regulated pilus production by strain C7258; type: cell-based, Vibrio cholerae
[5] = tested on: V. cholerae biofilm formation; type: cell-based, Vibrio cholerae
[6] = tested on: Vibrio cholerae strain C7258; assay: Growth of strain C7258 in broth containing test compound; type: cell-based; conditions: strain C7258, LB medium; Q24DA 10 μg/mL (FIG. 2)
[7] = tested on: V. cholerae 0395, V. parahaemolyticus, V. vulnificus; assay: Swarm agar plates with different pathogenic Vibrios; type: cell-based, Vibrio; conditions: polar (SMF) vs lateral (PMF) flagellum
Source text: V. cholerae and V. vulnificus make a single polar flagellum (Fla) powered by sodium motive force (SMF). […] (A) V. cholerae 0395; (B) V. parahaemolyticus B22 (Fla^+ Laf^+); (C) V. parahaemolyticus LM5674 (Fla^+ Laf^+); (D) V. parahaemolyticus LM1017 (Fla^+ Laf^−); (E) V. parahaemolyticus LM5392 (Fla^− Laf^+); (F) V. parahaemolyticus 7890 (Fla^+ Laf^−); (G) V. vulnificus LAM624.

[8] = tested on: Vibrio cholerae strain C7258; assay: Swarm agar plates stabbed with saturated cultures; type: cell-based; conditions: swarm agar stabbed with saturated culture of strain C7258
[9] = tested on: polar flagellum / flagellin FlaA of V. cholerae strain C7258; assay: Flagellum assembly by transmission electron microscopy and FlaA western blot; type: cell-based, Vibrio cholerae
[10] = assay validation, phenamil at 100 μM

Row | Compound | IC50 [1] | IC50 [3] | also measured
1 | Cc1ccc(C)c(Nc2nc(NCCO)c3ccccc3n2)c1 [AB00343282] | 8.76 µg/mL (≈ 28.4 µM) | 25.7 µg/mL (≈ 83.2 µM) | Effect on growth inhibition by blocking the PMF [2]: enhances the inhibitory effect of blocking the PMF; V. cholerae virulence gene expression [4]: inhibits V. cholerae virulence gene expression; Biofilm formation [5]: negative effect on biofilm formation; Effect on growth rate in broth [6]: no effect on growth rate; Flagellum specificity among pathogenic Vibrios [7]: specific for the polar flagellum powered by SMF; Motility in swarm agar (spread from inoculation site) ([8]; listed as Q24DA): motility inhibition; Motility in swarm agar (spread from inoculation site) ([8]; listed as quinazoline 2,4 diamine): completely abolished motility; Level of expression of major flagellin protein FlaA ([9]; Western blot analysis): nor did it affect; Expression, secretion and assembly of wild type flagellum ([9]; transmission electron microscopy): does not inhibit
2 | COc1ccc(C)cc1Nc1nc(N)c2ccccc2n1 [compound 27284] | 81.2 µg/mL (≈ 290 µM) | > 100 µg/mL | 
3 | Cc1ccc(Nc2nc(NCc3ccco3)c3ccccc3n2)cc1 [compound 27296] | 3.77 µg/mL (≈ 11.4 µM) | 11.1 µg/mL (≈ 33.5 µM) | 
4 | Oc1ccccc1Nc1nc(NCc2ccco2)c2ccccc2n1 [compound 27297] | 37.8 µg/mL (≈ 114 µM) | 81.9 µg/mL (≈ 246 µM) | 
5 | Fc1ccccc1Nc1nc(NCc2ccccc2)c2ccccc2n1 [compound 27299] | 6.37 µg/mL (≈ 18.5 µM) | 100 µg/mL (≈ 290 µM) | 
6 | COc1ccc(Nc2nc(N3CCCC3)nc3ccccc23)c(OC)c1 [compound 27301] | 46.6 µg/mL (≈ 133 µM) | 82 µg/mL (≈ 234 µM) | 
7 | c1ccc(CN2CCN(c3nc(NCc4ccco4)c4ccccc4n3)CC2)cc1 [compound 27307] | 34.9 µg/mL (≈ 87.3 µM) | 37.9 µg/mL (≈ 94.8 µM) | 
8 | O=[N+]([O-])c1ccc(N2CCN(c3nc(N4CCN(CCO)CC4)nc4ccccc34)CC2)cc1 [compound 27310] | 77.2 µg/mL (≈ 167 µM) | 55.4 µg/mL (≈ 120 µM) | 
9 | OCCNc1nc(NCc2ccco2)nc2ccccc12 [compound 27908] | 45.6 µg/mL (≈ 160 µM) | > 100 µg/mL | 
10 | OCCNc1nc(Nc2cccc(O)c2)nc2ccccc12 [compound 27910] | 22.2 µg/mL (≈ 74.8 µM) | 47 µg/mL (≈ 159 µM) | 
11 | OCCNc1nc(Nc2ccccc2O)nc2ccccc12 [compound 27911] | 29.5 µg/mL (≈ 99.7 µM) | 34.2 µg/mL (≈ 116 µM) | 
12 | OCCNc1nc(Nc2ccccc2F)nc2ccccc12 [compound 27912] | 4.89 µg/mL (≈ 16.4 µM) | 14.4 µg/mL (≈ 48.4 µM) | 
13 | Cc1cc(C)cc(Nc2nc(NCCO)c3ccccc3n2)c1 [compound 27914] | 6.96 µg/mL (≈ 22.6 µM) | 10.1 µg/mL (≈ 32.6 µM) | 
14 | Cc1ccc(O)c(Nc2nc(NCCO)c3ccccc3n2)c1 [compound 27915] | 29.9 µg/mL (≈ 96.2 µM) | 23 µg/mL (≈ 74.2 µM) | 
15 | COc1ccccc1Nc1nc(NCCO)c2ccccc2n1 [compound 27916] | 49.5 µg/mL (≈ 159 µM) | 38.1 µg/mL (≈ 123 µM) | 
16 | OCCNc1nc(NCCc2cccs2)nc2ccccc12 [compound 27917] | 19.7 µg/mL (≈ 62.7 µM) | 27 µg/mL (≈ 85.9 µM) | 
17 | Cc1ccc(Nc2nc(NCCO)c3ccccc3n2)c(C)c1 [compound 27918] | 6.1 µg/mL (≈ 19.8 µM) | 15.6 µg/mL (≈ 50.4 µM) | 
18 | OCCNc1nc(Nc2ccc3c(c2)OCO3)nc2ccccc12 [compound 27919] | 10.8 µg/mL (≈ 33.2 µM) | 29.8 µg/mL (≈ 91.8 µM) | 
19 | c1coc(CNc2nc(NCC3CCCO3)c3ccccc3n2)c1 (stereo not drawn) [compound 27926] | 24.7 µg/mL (≈ 76.2 µM) | 35.6 µg/mL (≈ 110 µM) | 
20 | Oc1ccccc1Nc1nc(NCC2CCCO2)c2ccccc2n1 (stereo not drawn) [compound 27928] | 16.5 µg/mL (≈ 49 µM) | 19.4 µg/mL (≈ 57.6 µM) | 
21 | Cc1cc(C)cc(Nc2nc(NCC3CCCO3)c3ccccc3n2)c1 (stereo not drawn) [compound 27929] | 6.89 µg/mL (≈ 19.8 µM) | 6.11 µg/mL (≈ 17.5 µM) | 
22 | FC(F)(F)c1cccc(Nc2nc(NCC3CCCO3)c3ccccc3n2)c1 (stereo not drawn) [compound 27930] | 7.59 µg/mL (≈ 19.5 µM) | 81.2 µg/mL (≈ 209 µM) | 
23 | NC(=Nc1ccccc1)NC(=O)c1nc(Cl)c(N)nc1N [phenamil, reference compound] |  |  | Effect on motility (OD615 reading) [1, 10]: inhibitory effect on motility; Control average OD615 in pilot screen [1]: Ave-0.10 OD615, CV-3.2; Effect on viability (alamarBlue reading) [3, 10]: little effect on viability
24 | CN(C)[C@@H]1C(O)=C(C(N)=O)C(=O)[C@@]2(O)C(O)=C3C(=O)c4c(O)cccc4[C@@](C)(O)[C@H]3C[C@@H]12 [tetracycline, reference compound] |  |  | Control average OD615 in pilot screen [1]: Ave-0.10 OD615, CV-3.6
